In patent US10093699B2, “Peptides with antimicrobial, anticancer and/or wound-healing promoting activities, pharmaceutical compositions containing the same, and use of the peptides with antimicrobial, anticancer and/or wound-healing promoting activities” (priority 2015, dated 2018):
Where a SMILES comes first, the peptide text is derived from it. [ ]: non-standard residue; d: D form. 2Nal = N[C@@H](Cc1ccc2ccccc2c1)C(=O)O

Key:
[1] = system: Gram-positive and Gram-negative bacterium; assay: Antimicrobial activity under several salt concentrations (summary in words); format: cell-based
Description: Escherichia coli strain (ATCC 25922), Staphylococcus aureus subsp strain (ATCC 25923, methicillin-resistant), and Pseudomonas aeruginosa Migula strain (ATCC 27853, ampicillin-resistant) were used to test the antibacterial activity of the peptides. Bacteria were cultured in sterilized Mueller-Hinton (MH) culturing medium at 200 rpm and 37° C. for 8 hours.
The antibacterial activities were determined by the standard broth microdilution method of National Committee for Clinical Laboratory Standards with the LYM broth. The LYM broth contains 5.4 mM KCl, 5.6 mM Na2HPO4, 0.5 mM MgSO4, and 1.0 mM sodium citrate. In addition, 0.4 mg of ZnCl2, 2.0 mg of FeCl3. 6H2O, 0.1 mg of CuSO4. 5H2O, 0.1 mg of MnSO4.H2O, 0.1 mg of Na2B4O7.10H2O, 700 mg of amino acid mixtures without tryptophan (Clontech), and 20 mg of L-Tryptophan were added per liter of medium. A vitamin mixture (100×, Sigma) and glucose at final concentration of 2% were also added.
1 μl peptide solutions (ranging from 5000 μg/ml to 78 μg/ml in serial dilution) was prepared and mixed with 99 μl inoculum (5×10^5 CFU/ml) in polypropylene 96-well plate. The turbidity at OD 600 nm was measured by ELISA plate reader (Thermo Max, Molecular Devices, Sunnyvale, Calif.). The absorbance of culture medium and inoculum suspension without peptides were used as the negative and positive control, respectively. […]

[2] = system: human fibroblast (HFW); assay: MTT cytotoxicity to normal fibroblasts; format: cell-based; conditions: MTT assay
Description: Human lung cancer line PC9 and A549, oral squamous cell carcinoma cell line OECM-1 were cultured in RPMI medium supplemented with 10% fetal bovine serum and antibiotic. Human tongue carcinoma cell line SAS, oral cancer cell line C9, and human diploid fibroblast (HFW) were cultured in DMEM medium supplemented with 10% fetal bovine serum and antibiotic. Cells were cultured in a humidified incubator containing 5% CO2 at 37° C.
The MTT assay was employed to determine the in vitro cytotoxicity. All cancer cell lines were seeded in 96-well plate with concentration 5000 cells/100 μl/well and incubated for 24 hours. HFW was seeded with 8000 cells/100 μl/well.
After medium was removed, 100 μl fresh medium containing peptide (ranging from 50 μM to 3.13 μM, HFW was treated with 75 μM and 100 μM peptide additionally) was added to the wells. Following 3, 12 or 24 hour incubation, fresh medium with MTT (0.5 mg/ml) was replaced and incubated for 3 hours. After medium/MTT was removed, DMSO was added at 100 μl for dissolving the formazan crystal. Cell survival rate was calculated by measuring the absorbance at 540 nm using Multi-labeled Microplate Reader (VICTOR3). For cancer cells, medium mixed with H2O2 (aq) represented positive control (all cells died) while medium only represented negative control. For normal cells, medium only represented positive control (all cells lived) while medium mixed with H2O2 (aq) represented negative control (all cells died).
The cytotoxicities of S1 and its analogs on human lung cancer cells (i.e, PC9, PC9-G and A549), human oral cancer cells (i.e, C9, OECM-1, and SAS), and human fibroblast (HFW) were evaluated by MTT assay for 3, 12 and 24 hours.

[3] = system: PC9 cells; assay: Cell live image (phase-contrast and immunofluorescence), PC9; format: cell-based, human; conditions: 12 μM, 5 minutes
Description: PC9 and HFW cells (˜10^5 cells) were pre-seeded in 6-cm polystyrene dishes for 24 hours. Cell nuclear is labeled by 4′,6-diamidino-2-phenylindole (DAPI) with a final concentration of 10 μg/ml. After 10 minutes of incubation, the cells were washed by PBS. FITC-K4R2Nal2S1-NH2 was added to the dishes with the final concentration of 12 μM. After incubation for 5, 10, 20 minutes or 1 hour at 37° C., the cells were washed with PBS. The images of FITC-K4R2Nal2S1-NH2 in PC9 cells and HFW cells were observed using the Inverted Fluorescent Microscope Zeiss/Observer.Z1.
To investigate the mode of actions of K4R2Nal2-S1 peptide on human cancer cell line (PC9) and human fibroblast (HFW), cells were treated with FITC-labeled K4R2-Nal2-S1. Nucleus was labeled with DAPI, and the blue signal was observed by UV exciting light. The fluorescence distribution of FITC-labeled K4R2-Nal2-S1 peptide on cell membrane was visualized by the inverted fluorescent microscope.

CC(=O)N[C@@H](CCCCN)C(=O)N[C@@H](CCCCN)C(=O)N[C@@H](CCCCN)C(=O)N[C@@H](CCCCN)C(=O)N[C@@H](CCCNC(=N)N)C(=O)N[C@@H](CCCNC(=N)N)C(=O)N[C@@H](Cc1ccc2ccccc2c1)C(=O)N[C@@H](Cc1ccc2ccccc2c1)C(=O)N[C@@H](CCCCN)C(=O)N[C@@H](CCCCN)C(=O)N[C@@H](Cc1c[nH]c2ccccc12)C(=O)N[C@@H](CCCNC(=N)N)C(=O)N[C@@H](CCCCN)C(=O)N[C@@H](Cc1c[nH]c2ccccc12)C(=O)N[C@@H](CC(C)C)C(=O)N[C@@H](C)C(=O)N[C@@H](CCCCN)C(=O)N[C@@H](CCCCN)C(N)=O [K4R2-Nal2-S1, Ac-KKKKRR-Nal-Nal-KKWRKWLAKK-NH2] (Ac-KKKKRR[2Nal][2Nal]KKWRKWLAKK-NH2)
effectiveness against bacterium ([1]; LYM broth condition): very effective
antimicrobial activities in high-salt conditions ([1]; addition of 100 or 200 mM NaCl): promising activities
degrees of cytotoxicities to HFW (rank order) [2]: S1 peptide<K4R2-Nal2-S1 peptide<K6-Nal2-S1 peptide<Nal2-S1 peptide
cellular swelling (phase-contrast microscopy) [3]: induced cellular swelling
